In ChEMBL document CHEMBL3507680, “University of Dundee, Gates Library screen for HepG2 cell viability” one finds cytotoxicity data, which are given here for 99 compounds.

The structures appear in SMILES notation.

This data set is described as follows: Human HepG2 cell viability assay in 384 well format. It is filed as toxicity, cell-based. Details: dose 125 nL, time 70.5 hour; cytotoxicity at 70.5 h: concentration not given beside the values. As to conditions: HepG2 cells, read-out: Inhibition.
`O=C(NCCC1CCN(CC(F)(F)F)CC1)C1CCCOC1` (centres undefined): the cytotoxicity at 70.5 h stood at 3.94%.
For `CCNC(=O)N1C[C@@H](NC(C)=O)[C@H](c2ccc(C)o2)C1` the value was -2.82%; for `CNC(=O)[C@@H]1CN(C(=O)CCOC)C[C@H]1c1ccnc(N2CCCC2)n1`, -4.83%.
For `c1cncc(O[C@H]2CC[C@H]3[C@H]2OCCN3C2CCC2)c1` the value was -3.23%; for `CN1C[C@H](O)C[C@H]1c1nc(-c2ccc3c(c2)OCO3)no1`, -0.612%.
As to `CCn1ncc2c1C(COC)CN(c1ncc(F)cn1)C2` (centres undefined), the cytotoxicity at 70.5 h was -9.93%.
For the compound `Cc1cc(O)nc(C2CCN(C(=O)CO)CC2)n1`, the cytotoxicity at 70.5 h is -3.54%.
Next, `Cc1ncoc1C(=O)N1CC[C@@H](O)[C@@H](O)[C@H](N2CCC(F)(F)CC2)C1`: -2.42%; `COc1ccc(N(Cc2ccco2)C(=O)COC(C)C)cc1F`: -7.47%; `CN(CC1(CO)CCC1)c1nc2c(c(=O)[nH]1)Cc1ccccc1OC2`: -10.8%.
Next, `Cc1ccccc1Oc1ncccc1CNC1CCC1`: 1.33%.
Consider `CN(Cc1cc[nH]n1)C(=O)C1CC(=O)N(Cc2ccncc2)C1` (centres undefined), for which the cytotoxicity at 70.5 h is -0.62%.
Take `COc1cccc(-c2cc(C(=O)NCCCn3cnnc3)[nH]n2)c1`: the cytotoxicity at 70.5 h was -11.1%.
Consider `Cc1cccc(N2CCN(CCC(=O)NCc3nnc[nH]3)CC2)c1`, for which the cytotoxicity at 70.5 h was -1.67%.
In the case of `CSc1ccccc1CN1CCCn2nc(CNC(=O)N(C)C)cc2C1`, the cytotoxicity at 70.5 h was -1.85%.
Next, `COc1cn(-c2ccccc2)nc1C(=O)NCCCN1CCCC(C)C1` (centres undefined): -11.2%; `COCCC(=O)N1CCCC2(CCCN2Cc2ccccc2F)C1` (centres undefined): -107%; `CC(C)c1nc(C2CCCN2C(=O)c2cnc[nH]2)no1` (centres undefined): 21.4%.
Next, `O=C(c1ccco1)N1C[C@@H]2OCCN(c3ncccn3)[C@@H]2C1`: -13.6%; `CNC(=O)c1cccc(CNC2CCCSc3ccccc32)c1` (centres undefined): -5.82%; `Cc1ccc(C)c(OCCNC(=O)[C@@H]2CCCCN2)c1`: -5.85%.
Next, `CN(CCc1cn[nH]c1)C(=O)C1CC(=O)N(Cc2ccccn2)C1` (centres undefined): 6.7%; `N#Cc1ccccc1N1CCCN(C(=O)CCc2ccsc2)CC1`: 1.39%.
`Cc1nc2c(c(NCC(=O)NC(C)C)n1)Cc1ccccc1OC2`: the cytotoxicity at 70.5 h is -2.23%.
Next, `COCCN1CCCN(C(=O)NC(C)Cn2ccnc2)CC1` (centres undefined): 2.76%; `CCc1nccn1C1CCCN(C(=O)c2cncn2-c2ccccc2)C1` (centres undefined): -6.28%.
On to `CN(C)C(=O)CN1CCC2(CC1)COC2`, for which the cytotoxicity at 70.5 h is -5.41%.
For `COC(=O)c1cccc(C(=O)NCc2ccco2)n1` the value was -15.9%; for `CS(=O)(=O)N1CCCC12CCN(Cc1nccs1)C2` (centres undefined), -1.64%; for `Cc1cc2nc(CO[C@H]3CN(C4CCN(C)CC4)C[C@H]3F)[nH]c2cc1C`, -4.5%.
Next, `CCOc1ccnc(N2CCN(C(=O)c3cccnc3)CC2)n1`: -8.35%; `Cc1ccoc1C(=O)N1CCn2cc(CN3CCCC3)nc2C1`: -4.12%; `CC(C)(C)n1nnnc1CN(CCc1ccccc1)Cc1ccccc1`: 1.44%.
Next, `COc1ccccc1CN(C)C(=O)CN1C(=O)OC[C@@H]1c1ccccc1`: 19.7%.
`CC(=O)Nc1cccc(-c2ccccc2CCN)c1`: the cytotoxicity at 70.5 h was -1.04%.
On to `CCOC(=O)C1(Cc2cccc(OC)c2)CCN(Cc2ncc[nH]2)CC1`, for which the cytotoxicity at 70.5 h is -8.46%.
Next, `O=C(c1ccccc1F)N1CCN(c2ccc(-n3cccn3)nn2)CC1`: 0.31%.
Turning to `O=C(c1cnccn1)N1C[C@@H]2CCN(c3cnccn3)C[C@@H]2C1`, the cytotoxicity at 70.5 h was -7.66%.
For `COc1ccc(CN(C)C(=O)CCC(=O)c2cccs2)c(OC)c1OC` the value was -3.38%.
For the compound `N[C@H]1CC[C@@H](CN2CCCn3nc(CNC(=O)C4CCC4)cc3C2)CC1`, the cytotoxicity at 70.5 h was -9.19%.
For `CCOc1ccccc1OC1CCN(C(=O)c2[nH]nc(C)c2Br)CC1` the value was 0.076%; for `Cc1ccccc1C(=O)NC[C@@H]1CCN(C(=O)CN2CCCC2)C[C@H]1O`, -5.06%; for `O=C(C1CC1)N1CCC(C(=O)N2CCC(c3ccc(F)cc3)C2)CC1` (centres undefined), 8.64%.
For `Cc1cccc(NC(=O)c2csc(NCC(C)C)n2)n1` the value was -14.8%.
Regarding `CN(CCc1cnn(C)c1)C(=O)C1COc2ccccc2C1` (centres undefined), the cytotoxicity at 70.5 h was -10.5%.
For `COc1ccccc1N1CCN(Cc2ncc(C)c(OC)c2C)CC1=O`, the cytotoxicity at 70.5 h was -6.77%.
For `CCn1cnnc1CNC(=O)N1CCN(c2cccs2)CC1` the value was 25.1%.
Next, `COC1COC2(CCN(C(=O)c3cnc(C)cn3)CC2)C1` (centres undefined): -6.81%.
For `Cn1cccc(NC(=O)COc2ccc(Cl)cc2)c1=O`, the cytotoxicity at 70.5 h was -1.21%.
For `COCCO[C@@H]1CCN(c2cc(OC)ncn2)[C@H]1Cc1cnn(C)c1` the value was -4.31%; for `Cc1cnn(CC2CCN(CC(O)COc3ccccc3)CC2)c1` (centres undefined), 4.78%.
Next, `COC(C)c1cccc(NCc2cccs2)c1` (centres undefined): -3.58%; `CCn1cc2c(n1)C(COC)CN(Cc1ccoc1)C2` (centres undefined): -15.1%; `COc1ccc(-n2ccc(C(=O)NCCN3CCCC(C)C3)n2)cc1` (centres undefined): 23.3%.
For `CN1CCN(C[C@@H]2CN(C(=O)NCC3CCCCC3)C[C@@H]2CO)CC1` the value was 27.6%; for `FC(F)(F)c1cc(C2CCCN(Cc3ccncc3)C2)n[nH]1` (centres undefined), -1.55%; for `CCC(=O)N1CCC(NC(=O)c2cccc(-n3ccnc3)c2)C1` (centres undefined), -8.46%.
Turning to `O=C(c1ccn(-c2ccccc2Cl)n1)N1CCCSCC1`, the cytotoxicity at 70.5 h was -3.62%.
For `Cc1cccc(CCC(=O)N2CCOCC2c2c(C)n[nH]c2C)c1` (centres undefined) the value was 17.3%.
Regarding `Cc1ccc(OCCCC(=O)NC(C)c2ccc(S(N)(=O)=O)cc2)cc1` (centres undefined), the cytotoxicity at 70.5 h is 34.1%.
In the case of `O=C(CCOc1ccccc1Cl)N1CCN(c2cnccn2)CC1`, the cytotoxicity at 70.5 h is 0.75%.
For `CCN(Cc1cccc(Cl)c1)Cc1ncc(C(C)(C)C)o1` the value was -1.17%.
Regarding `CNC(=O)[C@@H]1C[C@@H](N)CN1c1nc(N2CCCC2)nc(C)c1C`, the cytotoxicity at 70.5 h was -10.2%.
Turning to `O=C(c1ccncc1)N1C[C@@H]2CC[C@H](C1)N(C(=O)N1CCOCC1)C2`, the cytotoxicity at 70.5 h was -7.89%.
On to `Cc1noc(C)c1C(=O)N1Cc2ncn(C)c2C(COCC2CC2)C1` (centres undefined), for which the cytotoxicity at 70.5 h was -7.58%.
Turning to `Cc1nc(C(=O)N2CCN(C(C)c3ccccc3F)CC2)cs1` (centres undefined), the cytotoxicity at 70.5 h was -1.44%.
Next, `CCN(CC(=O)NC(C)C)C(=O)C(C)(C)c1ccc2c(c1)OCCO2`: -8.1%; `Cc1nn(C)c(C)c1-c1nc2cc(S(=O)(=O)N3CCCC3)ccc2n1C`: -0.406%.
Next, `CN(C)c1no[n+]([O-])c1-c1ccccc1`: 20.3%; `COc1ccc(C(C(=O)O)N2CCN(C3CCCCC3)CC2)cc1OC` (centres undefined): 13.6%; `CC(C)c1nnc2n1CC(CNCc1ccsc1)CC2` (centres undefined): 2.53%.
As for `COc1ccnc(NC(=O)c2ccsc2)c1`, the cytotoxicity at 70.5 h is -10.1%.
Take `CC(C)OCCC(=O)NCC(c1c(F)cccc1F)N(C)C` (centres undefined): the cytotoxicity at 70.5 h was determined as 22.3%.
Regarding `COc1cc(C)c(C(C)Nc2ncc(C(N)=O)cc2Cl)cc1OC` (centres undefined), the cytotoxicity at 70.5 h is -12.8%.
For `Cc1nn(C)c(C)c1C1CCCN1CC(=O)Nc1cccnc1` (centres undefined) the value was 23.1%; for `CC(=O)N1CC[C@H]2OCC[C@@]2(C(=O)NCc2ccco2)C1`, 1.98%; for `CN(CCO)Cc1nnc(C2CCN(CC(C)(C)C)CC2)n1C`, -4.91%.
For `Cc1noc(C)c1-c1cccc(C2CCNCC2)n1` the value was 7.5%; for `CCc1noc(CN(C)Cc2cc(Br)ccc2OC)n1`, -5.46%; for `CCS(=O)(=O)N1CCn2cc(CN(C)Cc3ccco3)nc2C1`, -2.7%.
Next, `CCCN1CCCn2nc(CNS(=O)(=O)c3cccc(F)c3)cc2C1`: -5.1%.
Take `Cc1ccccc1-c1csc2c(=O)[nH]c(N3CCCC(C(=O)O)C3)nc12` (centres undefined): the cytotoxicity at 70.5 h turned out to be 14.6%.
For `Cc1cccc(=O)n1CCCNc1nc(N(C)C)nc2c1CCNCC2`, the cytotoxicity at 70.5 h was -3.24%.
As to `O=S(=O)(c1ccccc1F)N1CCCC(c2nccs2)C1` (centres undefined), the cytotoxicity at 70.5 h was -1.24%.
`CCc1cc(NCCc2cnccn2)n2nc(C)c(C)c2n1`: the cytotoxicity at 70.5 h is -5.77%.
Next, `COc1ccc(CNc2c(N3CCN(C)CC3)c(=O)c2=O)cc1`: -8.39%; `N#Cc1nccnc1N1CCC(OCCCc2ccccc2)C1` (centres undefined): -6.29%; `c1cnc(C2CCCN(Cc3ccsc3)C2)cn1` (centres undefined): -6.09%.
Regarding `O=C(CSCc1ccccn1)NCC1CCN(C2CC2)C1` (centres undefined), the cytotoxicity at 70.5 h was 0.243%.
`Cn1c(=O)oc2ccc(S(=O)(=O)N3CCC(c4ccccc4)C3)cc21` (centres undefined): the cytotoxicity at 70.5 h was 28.3%.
Next, `Cc1cc(N2CCc3c(ncn3C3CC3)C2)nc(N)n1`: -7.99%.
For `N#Cc1ccnc(N2CCN(CC(O)c3ccccc3)CC2)c1` (centres undefined) the value was -8.1%; for `Cc1nc(NC2CCS(=O)(=O)CC2)cc(C2CCCNC2)n1` (centres undefined), -7.39%; for `O=C1CC2(CCN(C(=O)c3ccccc3)C2)Nc2ccccc2N1` (centres undefined), -17.8%.
`O=C(NCc1cccnc1)NCC(O)c1cccc(C(F)(F)F)c1` (centres undefined): the cytotoxicity at 70.5 h is -9.97%.
Regarding `Cc1nc(CN2CCCN(C(=O)c3ccccn3)CC2)oc1C`, the cytotoxicity at 70.5 h is -10.4%.
Turning to `CC(C)C(NC(=O)Cn1nc2c(cc1=O)CCCC2)C(=O)O` (centres undefined), the cytotoxicity at 70.5 h was -13.5%.
For `Cc1nnc2n1CCN(C(=O)c1cc3cc(F)ccc3[nH]1)C2` the value was -12.8%; for `O=C(CCSc1ccccc1F)NS(=O)(=O)c1ccc2c(c1)OCCO2`, -4.85%.
